Source: PMC9538944, “In vitro biotransformation assays using fish liver cells: Comparing rainbow trout and carp hepatocytes” (Frontiers in Toxicology, 2022)
Marks after values point to notes of the source that are not given here.

Columns and labels:
common carp hepatocytes = experiment: In vitro hepatocyte clearance assay (substrate depletion), carp; type: in vitro ADME, Cyprinus carpio; details: 20 °C, 2 µM MXC / 0.5 µM BaP, mean over in vitro runs
Description: Isolation of hepatocytes from liver of rainbow trout was performed by a two-step collagenase perfusion procedure which is well established for rainbow trout ([Nabb et al., 2006]; [Fay et al., 2015]). […] In previous studies with common carp, an in vitro digestion method was used to isolate hepatocytes ([Cowan-Ellsberry et al., 2008]; [Dyer et al., 2008]). Here, we adopted the method of [Segner et al. (1993)] who used a two-step collagenase perfusion of carp liver via the Arteria coeliaca for cell isolation. With the perfusion method, the percentage of pancreatic cells in the final cell suspension is typically <5% ([Vogt and Segner, 1997]). Cryopreservation and thawing procedures applied for hepatocytes of both species were based on the standard protocols for rainbow trout ([Fay et al., 2014a]; [Fay et al., 2014b]). The viability of the cells was determined by means of the trypan blue exclusion assay and counting of stained and non-stained cells in a hemocytometer. The carp and trout primary hepatocyte suspensions used in the present study were aliquots of the in vitro preparations used in a previous study investigating the in vitro metabolite patterns of MXC ([Bischof et al., 2016]). A detailed description of the methods and materials used for the preparation of hepatocyte suspensions including the procedures for cell isolation, cryopreservation, and thawing, as well as cell counting, diluting to the target cell concentration, and heat-inactivating can therefore be taken from [Bischof et al. (2016)] and from the cited publications.
The in vitro hepatocyte clearance experiments were performed in a substrate depletion approach according to the methods previously published by [Fay et al. (2014b)]. These methods are in accordance with the procedures provided in the OECD TG 319A on the performance of in vitro hepatocyte clearance assays. In the present study, several in vitro runs with MXC and BaP using suspensions of either freshly isolated or cryopreserved hepatocytes from common carp and rainbow trout were carried out. For the different in vitro runs non-pooled hepatocytes were used, i.e. hepatocytes from different individual fish. For each run, triplicates of live cells (3 × 1 ml at nominal 2 × 10^6 cells/mL) and heat-inactivated cells as controls were dosed with the test chemical dissolved in acetonitrile (ACN) at the targeted concentration (2 µM for MXC and 0.5 µM for BaP) and incubated for 4 h at 15 °C (trout) or 20 °C (carp). MXC and BaP reactions were run side by side in the same in vitro run using the same hepatocyte suspensions. […]
Measured values of parent chemical concentration were log10-transformed and plotted against time. […]

[1] = design: method as in Fay et al., 2014b; details: ref Fay et al., 2014b; cited from earlier work
[2] = cryopreserved carp hepatocytes, 4 h time point excluded
[3] = freshly isolated carp hepatocytes, 4 h, nominal 2 × 10^6 cells/mL

SMILES | Mean in vitro intrinsic clearance (CLin vitro, int) (common carp hepatocytes; [2]) [mL/h/10^6 cells] | Mean in vitro intrinsic clearance (CLin vitro, int) (common carp hepatocytes; [3]) | log KOW [1]
c1ccc2c(c1)cc1ccc3cccc4ccc2c1c34 [BaP, benzo[a]pyrene] | 0.287 | 0.198^* mL/h/10^6 cells | 5.99
COc1ccc(C(c2ccc(OC)cc2)C(Cl)(Cl)Cl)cc1 [MXC, methoxychlor] | 0.204 | 0.287^* mL/h/10^6 cells | 5.08
